Assay results taken from US11040108B2, “Amino acid- and peptide-steroid conjugates and use thereof” (BRANDEIS UNIVERSITY, priority 2016, dated 2021).
Converted amounts (≈) assume the structure as drawn. Where two headings read alike, the source gives them in different places.

Tests used:
[1] = test system: HS-5 cell line (human bone marrow stroma cell line); assay: MTT assay, cell viability of HS-5; format: cell-based; details: 12.5 μM, 48 hours (FIG. 5A)
Experimental: (§1) HeLa, Saos-2, HS-5, HepG2, T98G, and A2780 cells were purchased from American-type Culture Collection (ATCC, USA). A2780cis cell was purchased from Sigma. HeLa cells, HepG-2 cells, and T98G cells were cultured in MEM Medium supplemented with 10% v/v fetal bovine serum, 100 U/mL penicillin, and 100 μg/mL streptomycin. Saos-2 cells were cultured in McCoy's 5a Medium (for Saos-2) supplemented with 15% v/v fetal bovine serum, 100 U/mL penicillin, and 100 μg/mL streptomycin. HS-5 cells were cultured in Dulbecco's Modified Eagle's medium (DMEM) supplemented with 10% v fetal bovine serum (FBS), 100 U/mL penicillin, and 100 μg/mL streptomycin. A2780cis cells were cultured in RPMI 1640 Medium supplemented with 10% v/v fetal bovine serum, 100 U/mL penicillin, and 100 μg/mL streptomycin (cisplatin only necessary every 2-3 passages). All cells were maintained at 37° C. in a humidified atmosphere of 5% CO2.
(§2) An MTT assay was used to test the cytotoxicity. All different cell lines were seeded in 96-well plates at 1×10^5 cells/well for 24 hours followed by removal of the culture medium and subsequent addition of culture medium containing different concentrations of the precursors. At designated time (24/48/72 hours), 10 μL MTT solution (5 mg/mL) was added to each well and incubated at 37° C. for another 4 hours, and then 100 μL of SDS-HCl solution was added to stop the reduction reaction and dissolve the purple formazan. The absorbance of each well at 595 nm was measured by a multimode microplate reader. The cytotoxicity assay was performed three times and the average value of the three measurements was taken.
To verify the selectivity of 1a against cancer cells, the HS-5 cell line (human bone marrow stroma cell line) was used; HS-5 hardly overexpresses ALP on cell surface. […] To further confirm that ALP on cell surface (i.e., as an ectophosphatase) contributed to the inhibitory activity of 1a, A2780cis were incubated with 1a and ALP (1 U/mL).
Additional cell viability assays were carried out using conjugates 1a and 1b, optionally with 3, against HepG2 human liver carcinoma cells, Saos-2 osteosarcoma cells, T98G glioblastoma cells, HS-5 (normal bone marrow stromal cells), A2780 ovarian cancer cells (parental line to A2780cis), and Kuramochi ovarian cancer cells. Conjugate 1a was particularly effective against ovarian and cervical cancer cells.

[2] = test system: HeLa cells; assay: MTT assay, cytotoxicity against HeLa; format: cell-based, human; details: for IC50: Homo sapiens, HeLa, 48 h, read-out: IC50 against HeLa cell
Experimental: as §1, §2
To confirm that assemblies of the cholesterol conjugate are able to inhibit other cancer cell lines, 1a was incubated with HeLa cells, a widely studied malignant cervical cancer cell line.

[3] = TEM of assemblies in aqueous solution; format: physicochemical; details: 1.0 wt %; for diameter of assemblies on direct dissolution in water: without ALP, 1b spheres-like vesicle, 2b nanoribbon
Experimental: Sample solution (5 sufficient to cover the grid surface) was placed on the grid. Approximately 10 sec later, sample was rinsed by placing a large drop of the ddH2O on parafilm and allowing the grid to touch the water drop, with the sample-loaded surface facing the parafilm. The grid was tilted and water was gently absorbed from the edge of the grid using a filter paper sliver. This procedure was repeated 3 times. Immediately after rinsing, the staining was conducted by placing a large drop of the uranyl acetate (UA) stain solution on parafilm and allowing the grid to touch the stain solution drop, with the sample-loaded surface facing the parafilm. The grid was tilted and the stain solution was gently absorbed from the edge of the grid using a filter paper sliver. Next, the grid was allowed to dry in air and the grid was examined as soon as possible.
To further understand the inhibitory activity of 1a, transmission electron microscopy (TEM) was used to confirm the EISA of 1b. […] In contrast, uniform nanofibers (diameter of 10±2 nm) formed after the addition of ALP (1 U/mL) into the solution of 1a (FIG. 3B). The resulted nanofibers entangled with each other to result in a viscous solution. […] But the direct dissolution of 2b (1.0 wt %) provided an aqueous solution containing nanoribbon with the diameter of 17±2 nm and in several hundred nanometer length (FIG. 4B). These observations, collectively, confirmed that enzymatic reaction modulated the morphology of the assemblies of the cholesterol conjugates, which partially contributed to the different inhibitory activities of 1a, 1b, 2a, and 2b. That is, being exposed to the cancer cell, 1a (or 2a) turns into 1b (or 2b), a process catalyzed by the extra- or intracellular enzymes of the cancer cells; the resulting 1b (or 2b) self-assembled to form nanoscale assemblies that result in death of the cancer cell.

[4] = test system: A2780cis cells; assay: MTT assay, cytotoxicity against A2780cis; format: cell-based, human
Experimental: as §1, §2
The activity of conjugate 1a against a platinum-resistant, ovarian cancer cell line (A2780cis) (Behrens et al., “Characterization of a Cis-Diamminedichloroplatinum(Ii)-Resistant Human Ovarian Cancer Cell Line and its Use in Evaluation of Platinum Analogues,” Cancer Res. 47:414 (1987); Masuda et al., “Increased DNA Repair as a Mechanism of Acquired Resistance to Cis-Diamminedichloroplatinum (II) in Human Ovarian Cancer Cell Lines,” Cancer Res. 48:5713 (1988), which are hereby incorporated by reference in their entirety) was first examined. To assess the efficacy of conjugate 1a, the assay was carried out in parallel using the known, clinically used cytotoxic agent, cisplatin.

[5] = test system: HeLa, A2780cis, OVASHO, MES-SA/dx5 and Saos-2 cells; assay: NBD visualization of nano-aggregates in cancer cell lines (CLSM); format: cell-based; details: 25 μM; 11a in all five cell lines, 11b in OVASHO and MES-SA/dx5
Experimental: Different cancer cells at the density of 1.5×10^5 were seeded onto 3.5 cm confocal dish. After the growth of cells in cell incubator for 24 h, 11a (or 11b) at 25 μM was added to the above solution with completed medium. At designated times, PBS was used to wash cells 3 times for 1 minute. Hoechst 33342 was used to stain cell nucleus for 10 minutes, and cells were then washed using live cell imaging solution 3 times for 1 minute. Cells were maintained in live cell imaging solution, and CLSM was carried out immediately. The excitation of wavelength was 488 nm, and the emission was 500 nm to 596 nm.

[6] = test system: A2780 cell line; assay: Cell viability of unstimulated or selected A2780 cell line (acquired resistance); format: cell-based; details: after five weeks treatment with gradually increased concentrations; 24, 48, 72 h
Experimental: as §2
The activity of 1a against non-drug resistant cancer cells was assessed using the A2780 cell line.

[7] = 48 hours (FIG. 9A), unit inferred
[8] = read-out: IC50 against A2780cis, 72 hours
[9] = concentration of 100 μM (FIG. 10)

For `CC(C)CCC[C@@H](C)C1CC[C@H]2[C@@H]3CC=C4CC(OC(=O)NC(Cc5ccc(O)cc5)C(=O)O)CC[C@]4(C)[C@H]3CC[C@]12C` (stereo partly drawn) [1b, Cholesterol-D-Tyr], the “cell viability / proliferation of HS-5” value [1] was “hardly inhibited”, the IC50 [2] was 89.7 µM and the “diameter of assemblies on direct dissolution in water” value [3] was 25±2 nm. For the same molecule, the “cell viability / proliferation of A2780cis” value ([4]; 12.5 μM, 48 hours (FIG. 5A)) was “hardly inhibited” and the IC50 ([4]; Homo sapiens, A2780cis, 72 h, read-out: IC50 against A2780cis, 72 hours) was 50 µM.

With `CC(C)CCC[C@@H](C)C1CC[C@H]2[C@@H]3CC=C4CC(OC(=O)NC(Cc5ccc(OP(=O)(O)O)cc5)C(=O)O)CC[C@]4(C)[C@H]3CC[C@]12C` (stereo partly drawn) [2a, Cholesterol-(phospho)L-Tyr] the IC50 [2, 7] was 43.8 µM, the “morphology in aqueous solution without ALP” value ([3]; pH 7.4) was “disorder aggregates” and the “diameter of nanofibers formed after addition of ALP” value ([3]; pH 7.4, ALP 1 U/mL, 24 hours) was 15±2 nm. The “IC50 against A2780cis” value ([4]; 72 hours) was 15.2 µg/mL (≈ 22.6 µM) and the IC50 [4, 8] was 22 µM.

With `CC(C)CCC[C@@H](C)C1CC[C@H]2[C@@H]3CC=C4CC(OC(=O)NC(Cc5ccc(O)cc5)C(=O)O)CC[C@]4(C)[C@H]3CC[C@]12C` (stereo partly drawn) [2b, Cholesterol-L-Tyr] the IC50 [2, 7] was 59.2 µM, the “diameter of assemblies on direct dissolution in water” value [3] was 17±2 nm and the IC50 [4, 8] was 36 µM.

With `CC(C)CCC[C@@H](C)C1CC[C@H]2[C@@H]3CC=C4CC(OC(=O)NC(Cc5ccc(OP(=O)(O)O)cc5)C(=O)N[C@H](CCCCNc5ccc([N+](=O)[O-])c6nonc56)C(=O)O)CC[C@]4(C)[C@H]3CC[C@]12C` (stereo partly drawn) [11a, cholesterol-(phospho)y-(NBD)k] the “presence of nano-aggregates in or on treated cells” value [5] was “confirmed presence of nano-aggregates”.

For `CC(C)CCC[C@@H](C)C1CC[C@H]2[C@@H]3CC=C4CC(OC(=O)NC(Cc5ccc(O)cc5)C(=O)N[C@H](CCCCNc5ccc([N+](=O)[O-])c6nonc56)C(=O)O)CC[C@]4(C)[C@H]3CC[C@]12C` (stereo partly drawn) [11b, cholesterol-y-(NBD)k], the “presence of nano-aggregates in or on treated cells” value [5] was “confirmed presence of nano-aggregates”.

In the case of `N.N.[Cl][Pt][Cl]` [cisplatin, reference compound], the “inhibition of A2780 and acquired drug resistance” value [6] is reported as “caused platinum-resistance”, the “IC50 against A2780cis” value ([4]; 48 hours) is reported as 21.2 µg/mL and the “IC50 against A2780cis” value ([4]; 72 hours) is reported as 12.2 µg/mL. For the same molecule, the IC50 ([4]; 72 hours, read-out: IC50 against A2780cis) was 41 µM.

In the case of `CC(C)CCC[C@@H](C)C1CC[C@H]2[C@@H]3CC=C4CC(OC(=O)NC(Cc5ccccc5)C(=O)O)CC[C@]4(C)[C@H]3CC[C@]12C` (stereo partly drawn) [compound 3, Cholesterol-D-Phe], the “effect on HeLa cells” value [2, 9] is reported as “innocuous” and the “effect on A2780cis cells” value [4, 9] is reported as “innocuous”.
